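Test compounds were applied to cells in 96-well plates for 48 hours at 5 doses. GI50 is the concentration that inhibits growth by half.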 Active and inactive are the calls of the source. No stated cut-off is given here; in the data, active = GI50 up to about 1.1 µM and inactive = higher.
Legend:
Test in all cases: NCI anticancer screen, dose series, 48 h
[1] = test system: 786-0
[2] = test system: A498
[3] = test system: CAKI-1
[4] = test system: HCC 2998
[5] = test system: HOP-92
[6] = test system: HT-29
[7] = test system: Hs-578T
[8] = test system: IGROV-1
[9] = test system: NCI-H460
[10] = test system: NCI/ADR-RES
[11] = test system: SF-539
[12] = test system: SK-MEL-28
[13] = test system: SR
[14] = test system: UACC-62
[15] = test system: COLO 205
[16] = test system: SK-MEL-2
[17] = test system: PC-3
[18] = test system: SK-OV-3

SMILES | GI50 [1] | GI50 [2] | GI50 [3] | GI50 [4] | GI50 [5] | GI50 [6] | GI50 [7] | GI50 [8] | GI50 [9] | GI50 [10] | GI50 [11] | GI50 [12] | GI50 [13] | GI50 [14] | GI50 [15] | GI50 [16] | GI50 [17] | GI50 [18]
CCOC(=O)C1CCC(=O)N1C(=O)c1ccc(Cl)cc1 (stereo unspecified) | > 100 µM (inactive) | > 100 µM (inactive) | > 100 µM (inactive) | > 100 µM (inactive) | > 100 µM (inactive) | > 100 µM (inactive) | > 100 µM (inactive) | > 100 µM (inactive) | > 100 µM (inactive) | > 100 µM (inactive) | > 100 µM (inactive) | > 100 µM (inactive) | > 100 µM (inactive) | 22.3 µM (inactive) |  |  |  | 
O=C(O)CCSC(=O)Nc1ccc([N+](=O)[O-])cc1 | > 100 µM (inactive) | > 100 µM (inactive) | > 100 µM (inactive) | > 100 µM (inactive) |  | > 100 µM (inactive) |  | 72.8 µM (inactive) | > 100 µM (inactive) |  | > 100 µM (inactive) | > 100 µM (inactive) | > 100 µM (inactive) |  | > 100 µM (inactive) | > 100 µM (inactive) |  | 
COc1cc2c3c4[n+](cc2c(OC)c1OC)CCC4CCC3 (stereo unspecified) | > 100 µM (inactive) | > 100 µM (inactive) | > 100 µM (inactive) | > 93.1 µM (inactive) | > 100 µM (inactive) | > 100 µM (inactive) | > 100 µM (inactive) | > 100 µM (inactive) | > 100 µM (inactive) | > 100 µM (inactive) | > 100 µM (inactive) | > 100 µM (inactive) |  | > 100 µM (inactive) | 34.7 µM (inactive) | > 95.1 µM (inactive) | > 100 µM (inactive) | > 100 µM (inactive)
CCCCCCOc1ccc(NC2=C(Cl)C(=O)c3cccnc3C2=O)cc1 | 1.48 µM (inactive) | > 10 µM (inactive) |  | 1.56 µM (inactive) | 2.02 µM (inactive) | 2.62 µM (inactive) | 8.02 µM (inactive) | 1.88 µM (inactive) | 1.79 µM (inactive) |  | 2.09 µM (inactive) | 2.13 µM (inactive) |  | 1.07 µM (active) |  | 1.59 µM (inactive) | 2.41 µM (inactive) | 4.35 µM (inactive)
NNc1nnc(CCCCCCCCc2nnc(NN)n2N)n1N | 33.1 µM (inactive) | > 100 µM (inactive) | > 100 µM (inactive) | 33.3 µM (inactive) | 28 µM (inactive) | > 100 µM (inactive) |  | 55.3 µM (inactive) | > 100 µM (inactive) | 80.4 µM (inactive) | > 100 µM (inactive) | > 100 µM (inactive) |  |  | > 100 µM (inactive) | 84.5 µM (inactive) | > 100 µM (inactive) | > 100 µM (inactive)
COC(=O)C1=CCC[C@H]2[C@@]1(COC(C)=O)CC[C@@H](C)[C@]2(C)CC(=O)c1ccoc1 | 15.2 µM (inactive) | 16.7 µM (inactive) | 18.6 µM (inactive) | 12.9 µM (inactive) | 10.9 µM (inactive) | 8.65 µM (inactive) | 13.4 µM (inactive) | 15.9 µM (inactive) | 14.3 µM (inactive) | 14.7 µM (inactive) | 10.9 µM (inactive) |  |  | 7.93 µM (inactive) | 12.2 µM (inactive) | 15.7 µM (inactive) | 14.7 µM (inactive) | 47.5 µM (inactive)
CC(=O)c1ccc(N2CCN(C3=CC(=O)c4c(O)ccc(O)c4C3=O)CC2)cc1 | > 100 µM (inactive) | > 100 µM (inactive) | > 100 µM (inactive) | > 100 µM (inactive) | 25.8 µM (inactive) | 30.2 µM (inactive) |  | 45.9 µM (inactive) | 48.5 µM (inactive) | 3.44 µM (inactive) | > 100 µM (inactive) | > 100 µM (inactive) | 22.5 µM (inactive) | 31.4 µM (inactive) | 35.5 µM (inactive) |  | 66.1 µM (inactive) | 
O=C(NCC(O)COc1ccccc1)c1ccccc1O (stereo unspecified) | > 100 µM (inactive) | > 100 µM (inactive) | > 100 µM (inactive) | > 100 µM (inactive) | 86.1 µM (inactive) |  |  | > 100 µM (inactive) |  | 58.6 µM (inactive) | > 100 µM (inactive) | > 100 µM (inactive) | 87.7 µM (inactive) | 55 µM (inactive) | > 100 µM (inactive) | > 100 µM (inactive) | 66.1 µM (inactive) | > 100 µM (inactive)
COc1ccc(-c2nc(-c3cnccn3)n(C3OC(CO)C(O)C(O)C3O)n2)cc1 (stereo unspecified) | > 100 µM (inactive) |  |  | > 100 µM (inactive) | > 100 µM (inactive) | > 100 µM (inactive) |  | > 100 µM (inactive) | > 100 µM (inactive) | > 100 µM (inactive) | > 100 µM (inactive) | > 100 µM (inactive) | > 100 µM (inactive) | > 100 µM (inactive) | > 100 µM (inactive) |  | > 100 µM (inactive) | > 100 µM (inactive)
CC(=O)NNC1=NN(C(C)=O)C2(S1)C(=O)Nc1ccccc12 (stereo unspecified) | > 100 µM (inactive) |  | > 100 µM (inactive) | > 100 µM (inactive) |  | > 100 µM (inactive) |  | > 100 µM (inactive) | > 100 µM (inactive) | > 100 µM (inactive) | > 100 µM (inactive) | > 100 µM (inactive) | > 100 µM (inactive) | > 100 µM (inactive) |  | > 100 µM (inactive) | 45 µM (inactive) | > 100 µM (inactive)
Cc1c2c(c(C)n1-c1ccccc1)C(=O)N(CCN1CCN(c3cccc(C(F)(F)F)c3)CC1)C2=O | 71.8 µM (inactive) | > 100 µM (inactive) | 84.7 µM (inactive) | 97.5 µM (inactive) | > 100 µM (inactive) | 10.6 µM (inactive) | > 100 µM (inactive) | > 100 µM (inactive) | 45.3 µM (inactive) | 59.4 µM (inactive) | 87.1 µM (inactive) |  |  | > 100 µM (inactive) | 17.1 µM (inactive) | 0.719 µM (active) | 18.8 µM (inactive) | > 100 µM (inactive)
CC(C)(C)c1cc2c(c(C(C)(C)C)c1O)CC(=O)O2 | 26.5 µM (inactive) | 32.1 µM (inactive) |  | 35 µM (inactive) | < 0.01 µM (active) | 28.3 µM (inactive) | 26.4 µM (inactive) | 40.1 µM (inactive) | 37.7 µM (inactive) | 21.1 µM (inactive) | 23.2 µM (inactive) | 40.6 µM (inactive) |  | 23.2 µM (inactive) | 22.2 µM (inactive) | 21.5 µM (inactive) | 27.2 µM (inactive) | 48.8 µM (inactive)
CC(C)=CC1C(C(=O)Oc2ccccc2C(C)C)C1(C)C (stereo unspecified) | 19.9 µM (inactive) | 19.7 µM (inactive) | 32.4 µM (inactive) | 17.8 µM (inactive) | 25.5 µM (inactive) | 16.4 µM (inactive) | 39.9 µM (inactive) | 29.8 µM (inactive) | 22.4 µM (inactive) | 30 µM (inactive) |  | 39.1 µM (inactive) | 20.9 µM (inactive) | 36.7 µM (inactive) |  | 17.1 µM (inactive) |  | 31.6 µM (inactive)
C=C1CC[C@H]2C(C)=CC[C@H]3C(=C)C(=O)O[C@@H]3[C@@H]12 [EREMANTHIN] | > 100 µM (inactive) | > 100 µM (inactive) | > 100 µM (inactive) | > 100 µM (inactive) | > 100 µM (inactive) | > 100 µM (inactive) |  | > 100 µM (inactive) | > 100 µM (inactive) | > 100 µM (inactive) | > 100 µM (inactive) | > 100 µM (inactive) | > 100 µM (inactive) | > 100 µM (inactive) | 92 µM (inactive) | > 100 µM (inactive) | > 100 µM (inactive) | > 100 µM (inactive)
OCc1c2c(cc3c1CC1(C3)Cc3cc4c(c(CO)c3C1)CCC4)CCC2 | 14.2 µM (inactive) | 16.4 µM (inactive) |  | 17.5 µM (inactive) | 18.5 µM (inactive) | 17.1 µM (inactive) | 17.5 µM (inactive) | 15.5 µM (inactive) |  | 15.1 µM (inactive) | 17.4 µM (inactive) |  |  | 16.7 µM (inactive) | 24.3 µM (inactive) | 19.8 µM (inactive) | 15.3 µM (inactive) | 17.5 µM (inactive)
CNc1ncnc2c1nc(NC1CCCC1)n2C1OC(CO)C(O)C1O (stereo unspecified) | > 100 µM (inactive) | > 100 µM (inactive) | > 100 µM (inactive) | > 100 µM (inactive) | > 100 µM (inactive) | > 100 µM (inactive) |  |  | > 100 µM (inactive) | > 100 µM (inactive) | > 100 µM (inactive) | > 100 µM (inactive) |  | > 100 µM (inactive) | > 100 µM (inactive) | > 100 µM (inactive) | > 100 µM (inactive) | > 100 µM (inactive)
Cc1ccc(NC(=S)C#N)cc1Cl | 45.2 µM (inactive) | 26.7 µM (inactive) | 41.3 µM (inactive) | 24.3 µM (inactive) | 13.4 µM (inactive) | 30.1 µM (inactive) |  | 17.1 µM (inactive) |  | 31 µM (inactive) | 24.2 µM (inactive) | 41.2 µM (inactive) | 27 µM (inactive) | 37.9 µM (inactive) | 20.9 µM (inactive) | 35.5 µM (inactive) | 43.4 µM (inactive) | 26.5 µM (inactive)
COc1ccc2c(c1)c1c(n2CCN(C)C)-c2cccc(OC)c2CC1 | 22.3 µM (inactive) | 19.1 µM (inactive) | 13.1 µM (inactive) | 11.6 µM (inactive) | 17.7 µM (inactive) | 3.3 µM (inactive) | 16.3 µM (inactive) | 18.5 µM (inactive) | 14.6 µM (inactive) | 17.5 µM (inactive) |  | 14.2 µM (inactive) |  | 15.2 µM (inactive) | 6.62 µM (inactive) | 15.6 µM (inactive) | 11.6 µM (inactive) | 18.2 µM (inactive)

From ChEMBL document CHEMBL1201862, “PubChem BioAssay data set” (2004)
